The values below come from US9943558B2, “Compositions and methods for treating multi-drug resistant malaria” (Febris Bio-Tech Limited, priority 2011, dated 2018).

For data set [1] the following is noted: in vivo; cited from earlier work.
For data set [2] the following is noted: cited from earlier work.
The subject of data set [3] is P. falciparum DD2. The experiment in a line: Checkerboard assay (FIC index). The data set is classed as cell-based, Plasmodium falciparum. The conditions noted are these: for MIC: Plasmodium falciparum, DD2, each component used alone. On the procedure: Checkerboard assay. The anti-malaria activity of Luohan fruit extracts and Stevia leaf extracts in vitro were determined and predicted using the malarial strain P. falciparum DD2. Samples are mixed into 1:2 series dilutions and the FIC index (FICI) is calculated. (Rand, K. H., Houck, H. J., Brown, P. et al. “Reproducibility of the microdilution checkerboard method for antibiotic synergy,” Antimicrobial Agents & Chemotherapy (1993) 37:613-5; Eliopoulos, G. M., Moellering R. C. in Antibiotics in Laboratory Medicine, ed. Lorian V (Williams & Wilkins, Baltimore, Md., 1991), pp 432-492; Ghannoum, M. A., Fu, Y., Ibrahim, A. S., Mortara, L. A., Shafiq, M. C., Edwards, J. E., Jr., Criddle, R. S. Antimicrob. Agents Chemother. (1995) 39:2459-2465; Barchiesi, F., DiFrancesco, L. F., Scalise, G. “In Vitro Activities of Terbinafine in Combination With Fluconazole and Itraconazole Against Isolates of Candida albicans With Reduced Susceptibility to Azoles,” Antimicrob. Agents Chemother. (1997) 41:1812-1814. Each of the foregoing references are incorporated herein by reference in their entirety.)
To determine whether the readout of the combination therapy is additive, synergistic, or indifferent, the FIC index (FICI) was calculated by the use of the checkerboard assay. The FICI represents the sum of the FICs of each drug tested, where the FIC (fractional inhibitory concentration) is determined for each drug by dividing the MIC of each drug when used in combination by the MIC of each drug when used alone. FICI=(MICdrug A in combination/MICdrug A alone)+(MICdrug B in combination/MICdrug B alone). The preassumptions are that (i) testing uses concentrations separated by a factor of 2, and (ii) one-dilution-step MIC changes are within the range of experimental error. Other sophisticated methods have also been used; for example, a contour surface-plot methodology was used in characterizing the nature of three antifungal agents in combinations using various concentrations of each agent.

In data set [4] the test system is Plasmodium falciparum multidrug resistant strain (MDR) 7G8. Put plainly: In vitro growth inhibition of P. falciparum 7G8, infection rate by Giemsa-stained smear (Example 1B). It counts as cell-based. Conditions: 7G8, read-out: Antimalarial activity, IC50. The text has this:
The Plasmodium falciparum multidrug resistant strain (MDR) 7G8, (obtained from the Malaria Research and Reference Reagent Resource Centre (MR4), Manassas, Va., USA), was in vitro cultured in RMPI 1640 cell culture medium (supplemented with 10% Human Serum) with PCV (packed cell volume) at 5%. The P. falciparum was cell synchronized by adding 5% of D-sorbitol, and synchronized cells were then spread on culture plates after achieving ring form phase, with an initial infection rate of 1% and PCV at 5%.
(§1) 10 μl active ingredient solution plus 90 μl P. falciparum culture medium were spread on each well.

Data set [5] relates to P. falciparum drug-sensitive (DS) clone 3D7. The experiment in a line: In vitro growth inhibition IC50, Giemsa-stained smears (Example 1D), clone 3D7. It counts as cell-based. Conditions: Plasmodium falciparum. On the procedure:
(§2) The Luo Han Guo general extract (Sample 8) was prepared by extraction of dried Luo Han fruit with hot water as in Example 1A, and then fractionated with EtOAc and n-butanol respectively as in Example 1A to yield 3 fractions corresponding to Samples 5a-7a. Samples 6a-7a also correspond to “compound B” and “compound A” respectively.
(§3) The P. falciparum was cell synchronized by adding 5% of D-sorbitol, and synchronized cells were then spread on culture plates after achieving ring form phase, with an initial infection rate of 1% and PCV at 5%.
as §1
(§4) Drug-sensitive (DS) clone 3D7 and multi-drug resistant (MDR) clone Dd2 of Plasmodium falciparum, obtained from the Malaria Research and Reference Reagent Resource Centre (MR4), Manassas, Va., USA, were maintained continuously in blood group O+ human erythrocytes and 10% human serum in a gas mixture consisting of 7% CO2, 5% O2 and 88% N2.
(§5) In vitro inhibitory concentration assays. P. falciparum clones 3D7 and Dd2 were maintained continuously in blood group O+ human erythrocytes and 10% human serum in a gas mixture consisting of 7% CO2, 5% O2, and 88% N2, synchronized by serial treatments with 5% D-sorbitol. […]

Data set [6] concerns P. falciparum multi-drug resistant (MDR) clone Dd2. Put plainly: In vitro growth inhibition IC50, Giemsa-stained smears (Example 1D), clone Dd2. The conditions noted are these: Plasmodium falciparum. It counts as cell-based. On the procedure: as §2, §3, §1, §4, §5
In data set [7] the test system is P. falciparum clone 3D7. Put plainly: Malaria SYBR Green I-based fluorescence method, clone 3D7. It counts as cell-based. The conditions noted are these: Plasmodium falciparum, 3D7, 72 h, read-out: In vitro susceptibility (IC50) 3D7. On the procedure: (§6) 1803-1806, Vol. 48, No. 5, with slight modifications. Drug solutions were serially diluted with culture medium and distributed to asynchronous parasite cultures in 96-well plates in quadruplicate to achieve 0.2% parasitaemia with a 2% haematocrit in a total volume of 100 μL. The plates were then incubated for 72 h at 37° C. Following incubation, 100 μL of lysis buffer with 0.2 μL/mL SYBR Green 1 was added to each well. The plates were incubated at 37° C. for 1 h in the dark and then placed in a 96-well fluorescence plate reader (Multilabel HTS Counter; PerkinElmer, Waltham, Mass., USA) with excitation and emission wavelengths at 497 nm and 520 nm, respectively, for measurement of fluorescence. The 50% inhibitory concentration (IC50) was determined by non-linear regression analysis of logistic dose—response curves using GraphPad Prism software (GraphPad Software Inc., La Jolla, Calif.). This example serves as a comparative method.
(§7) Next, the assay portion of procedure of Example 1C was performed using Coartem as a positive control.

Data set [8] has as its system P. falciparum clone Dd2. Put plainly: Malaria SYBR Green I-based fluorescence method, clone Dd2. It counts as cell-based. The conditions noted are these: Plasmodium falciparum, DD2, 72 h, read-out: In vitro susceptibility (IC50) Dd2. On the procedure:
as §6, §7

For data set [9], the system named is P. falciparum drug-sensitive clone 3D7. Put plainly: In vitro inhibitory concentration assay, light microscopy of Giemsa-stained smears (Example 1C), clone 3D7. The data set is classed as cell-based. Conditions: Plasmodium falciparum, 10^−4 g/L, read-out: Percent of Inhibition (%, Mean ± SD) 3D7. On the procedure: (§8) Parasite cultivation. Drug-sensitive clone 3D7 and multi-drug resistant (MDR) clone Dd2 of Plasmodium falciparum, obtained from the Malaria Research and Reference Reagent Resource Centre (MR4), Manassas, Va., USA, were maintained continuously in blood group O+ human erythrocytes and 10% human serum in a gas mixture consisting of 7% CO2, 5% O2 and 88% N2.
(§9) The stock solutions of Example 1A, and CQ employed as the positive control (prepared as a 10 mM stock solution in PBS), were stored at −20° C. Each working solution was freshly prepared in cell culture medium.
(§10) In vitro inhibitory concentration assays. P. falciparum clones 3D7 and Dd2 were maintained continuously in blood group O+ human erythrocytes and 10% human serum in a gas mixture consisting of 7% CO2, 5% O2, and 88% N2, synchronized by serial treatments with 5% D-sorbitol. In vitro growth inhibition of ring-stage-parasitized erythrocytes starting at 1% parasitemia and 2.5% hematocrit was determined by light microscopy of Giemsa-stained smears.

Data set [10] concerns P. falciparum multi-drug resistant (MDR) clone Dd2. Put plainly: In vitro inhibitory concentration assay, light microscopy of Giemsa-stained smears (Example 1C), clone Dd2. The data set is classed as cell-based. The conditions noted are these: Plasmodium falciparum, 10^−4 g/L, read-out: Percent of Inhibition (%, Mean ± SD) Dd2. On the procedure:
as §8, §9, §10

In data set [11] the test system is P. falciparum infection. The experiment in a line: Expected oral treatment of patients, standard blood film monitoring. It counts as in vivo, Plasmodium falciparum. Conditions: patient, aqueous composition, total daily dosage up to about 500 mg of each active.
For data set [12] the following is noted: cited from earlier work; for half-life (t1/2): in humans.
Setting [13] is: Example 2E (control): artemesinin with Reb A.

Values after ≈ are worked out from the molar mass of the structure shown. Read-outs that look alike come from different tables or passages of the source.

In the case of `CCCCN(CCCC)CC(O)c1cc(Cl)cc2c1-c1ccc(Cl)cc1/C2=C/c1ccc(Cl)cc1` (racemic) [lumefantrine, (+/−)-2-dibutylamino-1-[2,7-dichloro-9-(4-chlorobenzylidene)-9,11-fluoren-4-yl]ethanol], in data set [1], the elimination result is given as “eliminated more slowly”.
Take `C[C@H](CC[C@@H](OC1OC(COC2OC(CO)C(O)C(O)C2O)C(O)C(O)C1OC1OC(CO)C(O)C(O)C1O)C(C)(C)O)[C@H]1CC[C@@]2(C)[C@@H]3CC=C4[C@@H](CC[C@H](OC5OC(COC6OC(CO)C(O)C(O)C6O)C(O)C(O)C5O)C4(C)C)[C@]3(C)[C@H](O)C[C@]12C` (stereo partly drawn) [mogroside V, (3β,9β,10α,11α,24R)-3-[(6-O-β-D-glucopyranosyl-β-D-glucopyranosyl)oxy]-11,25-dihydroxy-9-methyl-19-norlanost-5-en-24-yl-O-β-D-glucopyranosyl-(1-2)-O-[β-D-glucopyranosyl-(1-6)]-β-D-glucopyranoside]: the solubility in water result in data set [2] was “fully water soluble”.
Take `C[C@@H]1CC[C@H]2[C@@H](C)C(=O)O[C@@H]3O[C@@]4(C)CC[C@@H]1[C@]32OO4` [Artemisinin, reference compound]: the MIC in combination in data set [3] (setting [13]) was found to be 0.0081 nM. The MIC in [3] was 0.13 nM. Further, the solubility in water result in data set [2] is reported as “poorly soluble in water”.
For `CCN(CC)CCCC(C)Nc1ccnc2cc(Cl)ccc12` (centres unmarked) [CQ, chloroquine], the IC50 amounted to 0.264 ± 0.012 µg/mL (≈ 0.825 µM) in data set [4]; 1.37 ± 0.12 nM in data set [5] (3D7, read-out: IC50, av. 3D7 (DS)); 22.6 ± 0.82 nM in data set [6] (DD2, read-out: IC50, av. Dd2 (MDR)); 1.63 ± 0.1 nM in [7]; 22.1 ± 1.96 nM in data set [8].
With `CO[C@H]1O[C@@H]2O[C@@]3(C)CC[C@H]4[C@H](C)CC[C@@H]([C@H]1C)[C@@]24OO3` [Artemether, artemether], in [1], the elimination entry is on record as “rapidly eliminated”.
In the case of `C=C1C[C@@]23CC[C@H]4[C@@](C)(CCC[C@@]4(C)C(=O)OC4OC(CO)C(O)C(O)C4O)[C@@H]2CC[C@]1(OC1OC(CO)C(O)C(OC2OC(CO)C(O)C(O)C2O)C1OC1OC(CO)C(O)C(O)C1O)C3` (stereo partly drawn) [Sample No. 1, (14α)-13-[(2-O-β-D-glucopyranosyl-3-O-β-D-glucopyranosyl-β-D-glucopyranosyl)oxy]kaur-16-en-19-oic acid β-D-glucopyranosyl ester], the inhibition at 0.1 µg/mL in data set [9] was found to be 41.3%; in data set [10], 56.1 ± 1.36%. The IC50 in data set [5] (clone 3D7 (DS), Giemsa smear, read-out: IC50, av. 3D7 (DS)) was 220 ± 10.2 nM; in [6] (clone Dd2 (MDR), Giemsa smear, read-out: IC50, av. Dd2 (MDR)), 376 ± 12.4 nM. Besides, the results for the MIC in combination in [3] (Example 2D: compound A with Reb A) and in data set [3] (setting [13]) were 94 nM and 376 nM, respectively. In data set [3], the MIC was 376 nM. Besides, in data set [11], the “expected time until P. falciparum infection is suppressed or inhibited” value fell in the range of 3 to 7 days. The “adverse hemodynamic effects or blood glucose lowering effects” value in data set [12] (at the dosages used herein) is recorded as “does not exhibit adverse hemodynamic effects or blood glucose lowering effects”. For the same compound, in [12], the “half-life (t1/2)” value was “approximately 14 hours”. Besides, the solubility in water result in data set [2] is recorded as “fully water soluble”.
Take `C=C1C[C@@]23CC[C@H]4[C@@](C)(CCC[C@@]4(C)C(=O)O[C@@H]4O[C@H](CO)[C@@H](O)[C@H](O)[C@H]4O)[C@@H]2CC[C@]1(O[C@@H]1O[C@H](CO)[C@@H](O)[C@H](O)[C@H]1O[C@@H]1O[C@H](CO)[C@@H](O)[C@H](O)[C@H]1O)C3` [stevioside]: in [12], the “half-life (t1/2)” value was “approximately 14 hours”.

For orientation: MIC means the smallest concentration in the dilution series that meets the test's criterion for growth inhibition. For orientation: IC50 means the concentration needed to halve the response being measured. Usually inhibition stands for the relative decrease from the control value, in per cent.
